Results published in USRE46856E1, “Substituted 2,3-dihydroimidazo[1,2-c]quinazoline derivatives useful for treating hyper-proliferative disorders and diseases associated with angiogenesis” (Bayer Intellectual Property GmbH, priority 2006, dated 2018).

Experiments:
PI3Kα = target: T1, PI3Kα (Homo sapiens, UniProt P42336); experiment: Solid-phase lipid kinase assay of PI3Kα (p110α assay); format: biochemical; settings: recombinant truncated human p110α, 10 μM ATP
T1 construct: His6 (N); made in house; host or cells: S. frugiperda 9 (Sf9) insect cells
T1 sequence (P42336 109-1068): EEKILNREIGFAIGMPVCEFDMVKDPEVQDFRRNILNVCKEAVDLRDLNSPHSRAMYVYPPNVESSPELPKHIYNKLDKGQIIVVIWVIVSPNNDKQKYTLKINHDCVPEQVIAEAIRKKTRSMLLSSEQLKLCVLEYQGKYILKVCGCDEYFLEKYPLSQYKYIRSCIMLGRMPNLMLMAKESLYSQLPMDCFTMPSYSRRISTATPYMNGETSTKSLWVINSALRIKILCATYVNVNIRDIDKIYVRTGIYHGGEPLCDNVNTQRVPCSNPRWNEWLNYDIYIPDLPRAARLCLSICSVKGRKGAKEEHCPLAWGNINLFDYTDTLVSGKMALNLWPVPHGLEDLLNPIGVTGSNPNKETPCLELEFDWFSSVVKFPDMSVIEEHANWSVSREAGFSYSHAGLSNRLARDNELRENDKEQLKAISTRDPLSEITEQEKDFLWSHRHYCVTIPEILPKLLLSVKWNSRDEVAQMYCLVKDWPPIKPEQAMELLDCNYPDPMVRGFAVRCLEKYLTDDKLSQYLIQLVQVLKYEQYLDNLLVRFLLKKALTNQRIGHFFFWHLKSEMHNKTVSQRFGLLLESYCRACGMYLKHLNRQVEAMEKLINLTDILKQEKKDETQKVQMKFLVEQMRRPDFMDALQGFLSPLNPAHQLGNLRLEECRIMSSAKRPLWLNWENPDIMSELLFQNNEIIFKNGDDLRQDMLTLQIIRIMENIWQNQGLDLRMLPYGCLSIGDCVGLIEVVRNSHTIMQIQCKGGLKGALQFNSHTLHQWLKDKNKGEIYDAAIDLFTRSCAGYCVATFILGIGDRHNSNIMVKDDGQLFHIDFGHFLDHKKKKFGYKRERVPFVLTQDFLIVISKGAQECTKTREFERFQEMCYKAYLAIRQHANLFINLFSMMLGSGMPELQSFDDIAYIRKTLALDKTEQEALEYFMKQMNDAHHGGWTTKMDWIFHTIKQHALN
From the text: [Determination of IC50 Values of Compounds in Kinase Assay of PI3Kα]
LABORATORIES (Toronto, Canada). […] [γ^33P]ATP and unlabeled ATP were purchased from […] […] BIOTECH (Buckinghamshire, UK) and ROCHE DIAGNOSTICS (Mannheim, Germany), respectively. Scintillation cocktails and MicroScint PS™ were purchased from PACKARD (Meriden, Conn.). Maxisorp™ plates were purchased from NALGE NUNC INTERNATIONAL K.K. (Tokyo, Japan). All other chemicals not further specified were from WAKO PURE CHEMICALS (Osaka, Japan).
The plates were subsequently air-dried by incubation for at least 2 hours in a fume hood. The reaction was set up by mixing 25 μL/well of assay buffer 2×(100 mM MOPSO/NaOH, 0.2 M NaCl, pH 7.0, 8 mM MgCl2, 2 mg/mL BSA (fatty acid-free)), and 7.5 ng/well PI3Kα in the lipid pre-coated plate. 100× test compounds were added in 2% DMSO. The reaction was started by adding 20 μL/well of ATP mix (final 10 μM ATP; 0.05 μCi/well [γ^33P]ATP). After incubation at RT for 2 hours, the reaction was terminated by adding 50 μl/well stop solution (50 mM EDTA, pH 8.0). The plate was then washed twice with Tris-buffered saline (TBS, pH 7.4). MicroScint PS™ (PACKARD) scintillation mix was added at 100 μL/well, and radioactivity was counted using a TopCount™ (PACKARD) scintillation counter.
The inhibition percent at each concentration of compound was calculated, and IC50 values were determined from the inhibition of curve.

PI3Kβ = target: T2, PI3Kβ (Homo sapiens, UniProt P42338); experiment: Isozyme selectivity test: kinase assay of PI3Kβ (p110β assay); format: biochemical; settings: recombinant truncated p110β, 7.5 ng protein/well
T2 construct: His6 (N); made in house; host or cells: S. frugiperda 9 (Sf9) insect cells
T2 sequence (P42338 109-1070): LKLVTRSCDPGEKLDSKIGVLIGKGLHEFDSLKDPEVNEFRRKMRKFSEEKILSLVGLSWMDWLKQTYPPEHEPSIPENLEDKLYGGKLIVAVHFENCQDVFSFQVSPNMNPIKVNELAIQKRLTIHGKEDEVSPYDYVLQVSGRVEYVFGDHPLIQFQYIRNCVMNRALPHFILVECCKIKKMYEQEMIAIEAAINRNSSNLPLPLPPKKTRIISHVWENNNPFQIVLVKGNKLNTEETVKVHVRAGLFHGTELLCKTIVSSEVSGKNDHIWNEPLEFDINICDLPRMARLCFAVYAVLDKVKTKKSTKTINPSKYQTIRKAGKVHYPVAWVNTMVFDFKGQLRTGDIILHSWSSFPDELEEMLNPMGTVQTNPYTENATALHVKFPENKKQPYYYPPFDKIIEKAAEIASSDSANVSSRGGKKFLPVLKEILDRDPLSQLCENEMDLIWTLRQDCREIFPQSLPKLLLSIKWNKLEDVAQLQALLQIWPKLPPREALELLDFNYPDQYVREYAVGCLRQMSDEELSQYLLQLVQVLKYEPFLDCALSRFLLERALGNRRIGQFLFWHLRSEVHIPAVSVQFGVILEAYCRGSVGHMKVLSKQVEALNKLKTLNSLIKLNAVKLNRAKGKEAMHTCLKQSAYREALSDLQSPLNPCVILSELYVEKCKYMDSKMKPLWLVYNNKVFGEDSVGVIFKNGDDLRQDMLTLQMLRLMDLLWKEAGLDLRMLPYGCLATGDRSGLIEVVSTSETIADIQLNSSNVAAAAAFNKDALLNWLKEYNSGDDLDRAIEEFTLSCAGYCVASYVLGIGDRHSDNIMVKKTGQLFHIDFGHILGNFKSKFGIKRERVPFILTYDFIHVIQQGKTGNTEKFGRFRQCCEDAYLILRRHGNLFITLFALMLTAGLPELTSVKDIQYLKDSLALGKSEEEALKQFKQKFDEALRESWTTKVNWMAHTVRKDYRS
From the text: [Isozyme Selectivity Test in PI3K]
Determination of IC50 Values of Compounds in Kinase Assays of PI3Kβ and PI3Kγ

[1] = tested on: IGF-1 induced AKT phosphorylation in A549 cells; experiment: IGF-1 induced AKT phosphorylation assay (A549 cell assay); format: cell-based; settings: Homo sapiens; A549 cells, 25 ng/ml IGF-1, phospho-AKT(Ser 473); read-out: average IC50 in the A549 cell assay
Procedure, shortened: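 A549 cells stimulated with 25 ng/ml IGF-1 for 10 min at 37 °C, then fixed in formaldehyde/methanol. Phospho-AKT detected by cell ELISA (primary anti-phospho-AKT, HRP secondary, ECL luminescence); IC50 from inhibition curve.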

| IC50 (PI3Kα) [nM] | IC50 (PI3Kβ) [nM] | IC50 [1] [nM] | Compound |
| --- | --- | --- | --- |
| 10 to 100 | 10 to 100 | 100 to 1000 | COc1c(OCCCN2CCOCC2)ccc2c1N=C(NC(=O)c1ccc(OCC(F)(F)F)nc1)N1CCN=C21 [Example 61, N-[7-methoxy-8-(3-morpholin-4-ylpropoxy)-2,3-dihydroimidazo[1,2-c]quinazolin-5-yl]-6-(2,2,2-trifluoroethoxy)nicotinamide] |
| 10 to 100 | 10 to 100 | 100 to 1000 | COc1c(OCCCN2CCOCC2)ccc2c1N=C(NC(=O)c1ccc(C(F)(F)F)nc1)N1CCN=C21 [Example 62, N-[7-methoxy-8-(3-morpholin-4-ylpropoxy)-2,3-dihydroimidazo[1,2-c]quinazolin-5-yl]-6-(trifluoromethyl)nicotinamide] |
| 10 to 100 | 10 to 100 | 100 to 1000 | COc1c(OCCCN2CCOCC2)ccc2c1N=C(NC(=O)c1cccs1)N1CCN=C21 [Example 93, N-[7-methoxy-8-(3-morpholin-4-ylpropoxy)-2,3-dihydroimidazo[1,2-c]quinazolin-5-yl]thiophene-2-carboxamide] |
| 10 to 100 | 10 to 100 | > 1000 | COc1c(OCCCN2CCOCC2)ccc2c1N=C(NC(=O)c1csc(C)n1)N1CCN=C21 [Example 98, N-[7-methoxy-8-(3-morpholin-4-ylpropoxy)-2,3-dihydroimidazo[1,2-c]quinazolin-5-yl]-2-methyl-1,3-thiazole-4-carboxamide] |
